Experimental data taken from PubChem BioAssay (NCI).
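In this assay, cells in 96-well plates receive the compound at five concentrations for 48 hours. Endpoints are linearly interpolated between the surrounding concentrations. GI50 = concentration required for 50% inhibition of growth. TGI: concentration producing complete growth inhibition.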

Assays:
Experiment in all cases: DTP human tumour cell line panel, 48 h
DU-145 prostate = system: DU-145 prostate
UO-31 renal = system: UO-31 renal
CCRF-CEM leukemia = system: CCRF-CEM leukemia
UACC-62 melanoma = system: UACC-62 melanoma
HT29 colon = system: HT29 colon
HS 578T breast = system: HS 578T breast
NCI/ADR-RES ovarian = system: NCI/ADR-RES ovarian
MDA-MB-435 = system: MDA-MB-435
EKVX NSCLC = system: EKVX NSCLC
NCI-H23 lung = system: NCI-H23 lung
OVCAR-4 ovarian = system: OVCAR-4 ovarian
SNB-19 CNS = system: SNB-19 CNS
SF-268 CNS = system: SF-268 CNS
CAKI-1 renal = system: CAKI-1 renal
786-0 renal = system: 786-0 renal
SF-539 CNS = system: SF-539 CNS
SK-OV-3 ovarian = system: SK-OV-3 ovarian
SK-MEL-28 melanoma = system: SK-MEL-28 melanoma
UACC-257 melanoma = system: UACC-257 melanoma
SNB-75 CNS = system: SNB-75 CNS
SF-295 CNS = system: SF-295 CNS
A549 NSCLC = system: A549 NSCLC
NCI-H226 lung = system: NCI-H226 lung
A498 renal = system: A498 renal
RXF 393 renal = system: RXF 393 renal
T-47D breast = system: T-47D breast
OVCAR-3 ovarian = system: OVCAR-3 ovarian
PC-3 prostate = system: PC-3 prostate
HCC-2998 colon = system: HCC-2998 colon
HOP-92 NSCLC = system: HOP-92 NSCLC
IGROV1 ovarian = system: IGROV1 ovarian
M14 melanoma = system: M14 melanoma
HCT-15 colon = system: HCT-15 colon
OVCAR-8 ovarian = system: OVCAR-8 ovarian
NCI-H460 lung = system: NCI-H460 lung
SN12C renal = system: SN12C renal
MCF7 breast = system: MCF7 breast
LOX IMVI melanoma = system: LOX IMVI melanoma
HOP-62 NSCLC = system: HOP-62 NSCLC
MDA-MB-231 breast = system: MDA-MB-231 breast
SK-MEL-2 melanoma = system: SK-MEL-2 melanoma
BT-549 breast = system: BT-549 breast
HCT-116 colon = system: HCT-116 colon
COLO 205 colon = system: COLO 205 colon
MOLT-4 leukemia = system: MOLT-4 leukemia
SW-620 colon = system: SW-620 colon
SK-MEL-5 melanoma = system: SK-MEL-5 melanoma
K-562 leukemia = system: K-562 leukemia
NCI-H522 lung = system: NCI-H522 lung
U251 CNS = system: U251 CNS
OVCAR-5 ovarian = system: OVCAR-5 ovarian
RPMI-8226 leukemia = system: RPMI-8226 leukemia

[O-]c1c2cc(-[n+]3c(-c4ccccc4)cc(-c4ccccc4)cc3-c3ccccc3)cc1CO[C@@H](c1ccccc1)[C@H](c1ccccc1)OCCOCCO[C@@H](c1ccccc1)[C@H](c1ccccc1)OC2
TGI (DU-145 prostate): 1.14 µM
TGI (UO-31 renal): > 100 µM
TGI (CCRF-CEM leukemia): 0.238 µM
TGI (UACC-62 melanoma): 1.39 µM
TGI (HT29 colon): 0.646 µM
TGI (HS 578T breast): 3.12 µM

N#Cc1c(N)nc(N2CCOCC2)c(C#N)c1-c1ccc(Cl)cc1Cl
GI50 (NCI/ADR-RES ovarian): 19.9 µM
TGI (NCI/ADR-RES ovarian): 48.1 µM
GI50 (MDA-MB-435): 5.75 µM
TGI (MDA-MB-435): 21.9 µM
GI50 (EKVX NSCLC): 20.1 µM
TGI (EKVX NSCLC): 64.3 µM
GI50 (NCI-H23 lung): 19.7 µM
TGI (NCI-H23 lung): 48.4 µM
GI50 (OVCAR-4 ovarian): 21.8 µM
TGI (OVCAR-4 ovarian): 78.2 µM
GI50 (SNB-19 CNS): 15.9 µM
TGI (SNB-19 CNS): 60.9 µM
GI50 (SF-268 CNS): 14.2 µM
TGI (SF-268 CNS): 35.6 µM
GI50 (CAKI-1 renal): 18.6 µM
TGI (CAKI-1 renal): 46.8 µM
GI50 (786-0 renal): 19.5 µM
TGI (786-0 renal): 44.8 µM
GI50 (SF-539 CNS): 17.9 µM
TGI (SF-539 CNS): 42.1 µM
GI50 (SK-OV-3 ovarian): 22.2 µM
TGI (SK-OV-3 ovarian): 91.1 µM
GI50 (SK-MEL-28 melanoma): 18.4 µM
TGI (SK-MEL-28 melanoma): 53.1 µM
GI50 (UACC-257 melanoma): 18 µM
TGI (UACC-257 melanoma): 62.4 µM
GI50 (DU-145 prostate): 24.6 µM
TGI (DU-145 prostate): 81 µM
GI50 (SNB-75 CNS): 6.31 µM
TGI (SNB-75 CNS): 30.4 µM
GI50 (SF-295 CNS): 19 µM
TGI (SF-295 CNS): 51.8 µM
GI50 (A549 NSCLC): 20.2 µM
TGI (A549 NSCLC): 54.9 µM
GI50 (NCI-H226 lung): 26.9 µM
TGI (NCI-H226 lung): > 100 µM
GI50 (UO-31 renal): 3.26 µM
TGI (UO-31 renal): 15.8 µM
GI50 (A498 renal): 2.68 µM
TGI (A498 renal): 11.1 µM
GI50 (RXF 393 renal): 5.67 µM
TGI (RXF 393 renal): 38.4 µM
GI50 (T-47D breast): 12.9 µM
TGI (T-47D breast): 81.4 µM
GI50 (OVCAR-3 ovarian): 13.7 µM
TGI (OVCAR-3 ovarian): 41.3 µM
GI50 (PC-3 prostate): 10.9 µM
TGI (PC-3 prostate): 35.2 µM
GI50 (HCC-2998 colon): 13.3 µM
TGI (HCC-2998 colon): 28.2 µM
GI50 (CCRF-CEM leukemia): 23.2 µM
TGI (CCRF-CEM leukemia): 75 µM
GI50 (HOP-92 NSCLC): 3.35 µM
TGI (HOP-92 NSCLC): 26.3 µM
GI50 (IGROV1 ovarian): 6.64 µM
TGI (IGROV1 ovarian): 23.6 µM
GI50 (M14 melanoma): 18.3 µM
TGI (M14 melanoma): 42 µM
GI50 (HCT-15 colon): 15.5 µM
TGI (HCT-15 colon): 56.4 µM
GI50 (OVCAR-8 ovarian): 18.2 µM
TGI (OVCAR-8 ovarian): 54.5 µM
GI50 (UACC-62 melanoma): 10.8 µM
TGI (UACC-62 melanoma): 28.8 µM
GI50 (NCI-H460 lung): 9.38 µM
TGI (NCI-H460 lung): 25.3 µM
GI50 (SN12C renal): 16.1 µM
TGI (SN12C renal): 43.3 µM
GI50 (MCF7 breast): 8.8 µM
TGI (MCF7 breast): 36.2 µM
GI50 (HT29 colon): 16.4 µM
TGI (HT29 colon): 39.3 µM
GI50 (LOX IMVI melanoma): 16.7 µM
TGI (LOX IMVI melanoma): 34.2 µM
GI50 (HOP-62 NSCLC): 28 µM
TGI (HOP-62 NSCLC): 91.6 µM
GI50 (MDA-MB-231 breast): 15.9 µM
TGI (MDA-MB-231 breast): 43.7 µM
GI50 (SK-MEL-2 melanoma): 13.6 µM
TGI (SK-MEL-2 melanoma): 32.4 µM
GI50 (BT-549 breast): 17.4 µM
TGI (BT-549 breast): 55.8 µM
GI50 (HCT-116 colon): 22.1 µM
TGI (HCT-116 colon): 54.7 µM
GI50 (COLO 205 colon): 16.6 µM
TGI (COLO 205 colon): 40.6 µM
GI50 (MOLT-4 leukemia): 24.2 µM
TGI (MOLT-4 leukemia): > 100 µM
GI50 (SW-620 colon): 27.3 µM
TGI (SW-620 colon): > 100 µM
GI50 (SK-MEL-5 melanoma): 14.7 µM
TGI (SK-MEL-5 melanoma): 29.2 µM
GI50 (K-562 leukemia): 23.9 µM
TGI (K-562 leukemia): 99.1 µM
GI50 (HS 578T breast): 15.8 µM
TGI (HS 578T breast): 45.9 µM
GI50 (NCI-H522 lung): 4.77 µM
TGI (NCI-H522 lung): 18.4 µM
GI50 (U251 CNS): 17.4 µM
TGI (U251 CNS): 42.4 µM
GI50 (OVCAR-5 ovarian): 23.1 µM
TGI (OVCAR-5 ovarian): 71.2 µM
GI50 (RPMI-8226 leukemia): 19.5 µM
TGI (RPMI-8226 leukemia): 56.9 µM
